How the values were obtained:
[1] = target: T1, human LMPTP-A (Homo sapiens, UniProt P24666); assay: LMPTP biochemical inhibition assay; details: for LMPTP potency, in words (Table 3 series): substitution of the benzyl substituent off the 3-position
T1 sequence (P24666 1-158): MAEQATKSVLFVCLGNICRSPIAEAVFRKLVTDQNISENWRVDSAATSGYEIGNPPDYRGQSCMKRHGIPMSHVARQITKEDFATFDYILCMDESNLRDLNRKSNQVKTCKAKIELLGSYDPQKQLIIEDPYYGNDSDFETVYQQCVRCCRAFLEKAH

[2] = system: VHR; details: HTS workflow; cited from earlier work
[3] = system: LYP; details: HTS workflow; cited from earlier work
[4] = Mouse pharmacokinetics; details: in vivo, iv, 2 mg/kg
[5] = system: panel of PTPs (class I tyrosine-specific and dual-specific PTPs); details: 40 μM compound; no other PTP tested
[6] = system: HepG2 hepatocytes; assay: Insulin-stimulated AKT Thr308 phosphorylation in HepG2 hepatocytes; assay type: cell-based, human; details: 500 nM overnight, 10 nM insulin 5 min
[7] = system: diabetic DIO mice; assay: DIO diabetes model; assay type: in vivo, mouse; details: 2 weeks
[8] = target: T1, human LMPTP-A
[9] = 0.03% in HFD chow, 10 min after IP insulin

Nc1ncn(Cc2cccc(Cl)c2)c2ncnc1-2 [6d]
LMPTP potency, in words (Table 3 series) [1]: decreased potency

Nc1ncn(Cc2ccc(Cl)cc2Cl)c2ncnc1-2 [6c]
LMPTP potency, in words (Table 3 series) [1]: decreased potency

Clc1cccc(Cl)c1Cn1cnc(=NCc2ccco2)c2[nH]cnc21 [compound 2]
selectivity for LMPTP over VHR [2]: high selectivity | selectivity for LMPTP over LYP [3]: high selectivity

Cc1cccc(C)c1Cn1cnc(N)c2ncnc1-2 [6f]
fold loss in potency (LMPTP) ([1]; benzyl substituent off the 3-position, compared with 2,6-bisubstitution): 10 fold

Cc1ccccc1-c1nc2c(N)ncn(Cc3c(Cl)cncc3Cl)c-2n1 [6h]
LMPTP potency, in words (Table 3 series) [1]: additional boost in potency | clearance at 24 h [4]: 6.18 L/h/kg

Nc1ncn(Cc2ccc(Cl)cc2)c2ncnc1-2 [6e]
LMPTP potency, in words (Table 3 series) [1]: decreased potency

Nc1ncn(Cc2c(Cl)cccc2Cl)c2ncnc1-2 [compound 3]
fold more potent than 2 (LMPTP) ([1]; compared with 2): > 10 fold | inhibition of other PTPs of the panel [5]: < 50% | clearance at 24 h [4]: 0.348 L/h/kg

Nc1ncn(Cc2c(Cl)cncc2Cl)c2ncnc1-2 [6g]
HepG2 AKT Thr308 phosphorylation after insulin stimulation [6]: substantially increased | glucose tolerance (IPGTT) ([7]; 0.03% in HFD chow (roughly 30 mg/kg/day)): significantly improved | fasting insulin levels ([7]; 0.03% in HFD chow): decreased | insulin-stimulated phosphorylation of the IR activation motif in liver [7, 9]: increased | phosphorylation of AKT Thr308 in liver [7, 9]: increased | mechanism of LMPTP inhibition [8]: uncompetitive | clearance at 24 h [4]: 1.08 L/h/kg

Nc1ncn(Cc2ccccc2Cl)c2ncnc1-2 [6b]
LMPTP potency, in words (Table 3 series) [1]: decreased potency

Nc1ncn(Cc2ccccc2)c2ncnc1-2 [6a]
LMPTP potency, in words (Table 3 series) [1]: decreased potency

Cc1ccccc1-c1nc2c(N)ncn(Cc3c(Cl)cccc3Cl)c-2n1 [5d]
mechanism of LMPTP inhibition [8]: uncompetitive | potency at varying substrate concentrations ([8]; 20 nM human LMPTP-A, increasing OMFP): enhanced potency in the presence of increasing substrate | clearance at 24 h [4]: 4.14 L/h/kg
